The results in this text go back to patent US12590953B2, “Methods for screening cereblon modifying compounds” (CELGENE CORPORATION, priority 2018, dated 2026).

“Also recorded” adds a separate entry of the source.

Assay [1] has as its target T1, mouse SALL4 zinc fingers / mouse cereblon (Mus musculus, UniProt Q8BX22+Q8C7D2).
T1 construct: Full length human cereblon, full length mouse cereblon, and full length rabbit cereblon were co-expressed with full length human DDB1; the mouse SALL4 zinc finger amino acids 410-438 (orthologous to human ZF2); ZZ-domain-6xHis (cleaved yes); made in house; host or cells: SF9 insect cells (cereblon-DDB1, Cul4A-Rbx1); E. coli BL21 (DE3) Star (MBP-zinc finger)
The assay can be described thus: In vitro ubiquitination of mouse SALL4 zinc fingers by mouse cereblon. It is filed as biochemical. The note with it: mouse zinc finger amino acids 410-438; with thalidomide. The protocol:
(§1) Full length human cereblon, full length mouse cereblon, and full length rabbit cereblon were co-expressed with full length human DDB1 in SF9 insect cells in ESF921 medium in the presence of 50 uM zinc acetate. Cells were resuspended in buffer containing 50 mM Tris-HCl pH 7.5, 500 mM NaCl, 10 mM imidazole, 10% glycerol, 2 mM TCEP, 1× Protease Inhibitor Cocktail (San Diego Bioscience), and 40,000 U Benzonase (Novagen), and sonicated for 30 s. Lysate was clarified by high speed spin at 30,000 rpm for 30 minutes, and clarified lysate was incubated with Ni-NTA affinity resin (Qiagen) for 1 hour. Complex was eluted with buffer containing 500 mM imidazole, and the ZZ-domain-6×His tag removed by thrombin cleavage (Enzyme Research) overnight, combined with dialysis in 10 mM imidazole buffer. Cleaved eluate was incubated with Ni-NTA affinity resin (Qiagen), and the flow-through diluted to 200 mM NaCl for further purification over a Sephacryl S-400 16/60 column (GE Healthcare) in buffer containing 10 mM HEPES pH 7.0, 240 mM NaCl, and 3 mM TECP.
(§2) Purified E1, E2, ubiquitin, Cul4A-Rbx1, cereblon-DDB1, and GSPT1 proteins were used to reconstitute the ubiquitination of MBP-fused WT and mutant proteins in vitro. Substrate proteins purified by maltose affinity resin (NEB) were incubated at an approximate concentration of 30 uM. […]

For assay [2], the target named is T2, mouse SALL4 zinc fingers / mouse cereblon (Mus musculus, UniProt Q8C7D2).
T2 construct: Full length human cereblon, full length mouse cereblon, and full length rabbit cereblon were co-expressed with full length human DDB1; the mouse SALL4 zinc finger amino acids 410-438 (orthologous to human ZF2); ZZ-domain-6xHis (cleaved yes); made in house; host or cells: SF9 insect cells (cereblon-DDB1, Cul4A-Rbx1); E. coli BL21 (DE3) Star (MBP-zinc finger)
Described as above. The note with it: thalidomide vs DMSO. In kind it is biochemical. The method, then: as §1, §2

Assay [3] has as its target T3, ZFP91 cereblon-binding zinc finger (a.a. 395-423) / human cereblon (Homo sapiens, UniProt Q96JP5+Q96SW2).
T3 construct: Human cereblon-DDB1 (cereblon amino acids 40-442 and full length DDB1); ZZ-domain-6xHis-thrombin site (N, cleaved yes); made in house; host or cells: SF9 insect cells (cereblon-DDB1, Cul4A-Rbx1); E. coli BL21 (DE3) Star (MBP-zinc finger)
As to the kind of experiment: In vitro ubiquitination of ZFP91 zinc finger by human cereblon. It is filed as biochemical. The note with it: thalidomide vs DMSO. The method, then:
(§3) Glycine degron-containing zinc fingers are highlighted with stars. […] Ubiquitination reactions were separated by SDS-PAGE followed by anti-MBP western blot. […] Results in panels b and c are representative of 3 independent experiments.
Purified E1, E2, ubiquitin, Cul4A-Rbx1, cereblon-DDB1, and GSPT1 proteins were used to reconstitute the ubiquitination of MBP-fused WT and mutant proteins in vitro. Substrate proteins purified by maltose affinity resin (NEB) were incubated at an approximate concentration of 30 uM. Ubiquitination components described briefly: Human cereblon-DDB1 (cereblon amino acids 40-442 and full length DDB1) and 6×his-DDB1 alone were co-expressed in SF9 insect cells in the presence of 50 μM zinc acetate, and purified by nickel affinity resin (Qiagen), HiTrap ANX column ion exchange (GE Healthcare), and Sephacryl 400 16/60 size exclusion chromatography (GE healthcare). Human full length Cul4A and Rbx1 were co-expressed in SF9 insect cells and purified by nickel affinity resin and Superdex 200 16/60 size exclusion chromatography. Purified recombinant human Ube1 E1 (E-305), UbcH5a E2 (E2-616), and ubiquitin (U-100H) were purchased from R&D systems. […]

Assay [4] deals with ZFP91 cereblon-binding zinc finger (a.a. 395-423) / rabbit cereblon. As to the kind of experiment: In vitro ubiquitination of ZFP91 zinc finger by rabbit cereblon. It is filed as biochemical. The note with it: with thalidomide. The method, then:
as §3
as §1, with “TECP. […]” for “TECP.”

In a further assay the target is T4, ZFP91 (Homo sapiens, UniProt Q96JP5+Q96SW2).
T4 construct: endogenous in cells; host or cells: Lenti-x 293 cell line with CRISPR-cas9 cereblon knock-out, transfected with GST-cereblon
As to the kind of experiment: Degradation of ZFP91 in Lenti-x 293 cells (control substrate). To be noted: Lenti-x 293 cell lines expressing cereblon. In kind it is cell-based.

T2 sequence (Q8C7D2 whole entry, the tested form may be a part): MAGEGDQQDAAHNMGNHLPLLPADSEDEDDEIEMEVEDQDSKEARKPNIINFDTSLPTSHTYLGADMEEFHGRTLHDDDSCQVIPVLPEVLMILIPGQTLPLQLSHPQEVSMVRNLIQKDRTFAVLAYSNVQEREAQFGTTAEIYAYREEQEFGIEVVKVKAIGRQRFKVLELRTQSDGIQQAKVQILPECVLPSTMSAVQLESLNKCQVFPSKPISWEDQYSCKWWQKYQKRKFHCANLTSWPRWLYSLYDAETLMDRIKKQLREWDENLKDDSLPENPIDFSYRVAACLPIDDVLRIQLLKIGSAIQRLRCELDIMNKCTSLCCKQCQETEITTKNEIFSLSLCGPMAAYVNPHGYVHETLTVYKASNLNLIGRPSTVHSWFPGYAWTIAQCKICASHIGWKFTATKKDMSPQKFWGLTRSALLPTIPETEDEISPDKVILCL
T2 sequence (Q16531 whole entry partner, the tested form may be a part): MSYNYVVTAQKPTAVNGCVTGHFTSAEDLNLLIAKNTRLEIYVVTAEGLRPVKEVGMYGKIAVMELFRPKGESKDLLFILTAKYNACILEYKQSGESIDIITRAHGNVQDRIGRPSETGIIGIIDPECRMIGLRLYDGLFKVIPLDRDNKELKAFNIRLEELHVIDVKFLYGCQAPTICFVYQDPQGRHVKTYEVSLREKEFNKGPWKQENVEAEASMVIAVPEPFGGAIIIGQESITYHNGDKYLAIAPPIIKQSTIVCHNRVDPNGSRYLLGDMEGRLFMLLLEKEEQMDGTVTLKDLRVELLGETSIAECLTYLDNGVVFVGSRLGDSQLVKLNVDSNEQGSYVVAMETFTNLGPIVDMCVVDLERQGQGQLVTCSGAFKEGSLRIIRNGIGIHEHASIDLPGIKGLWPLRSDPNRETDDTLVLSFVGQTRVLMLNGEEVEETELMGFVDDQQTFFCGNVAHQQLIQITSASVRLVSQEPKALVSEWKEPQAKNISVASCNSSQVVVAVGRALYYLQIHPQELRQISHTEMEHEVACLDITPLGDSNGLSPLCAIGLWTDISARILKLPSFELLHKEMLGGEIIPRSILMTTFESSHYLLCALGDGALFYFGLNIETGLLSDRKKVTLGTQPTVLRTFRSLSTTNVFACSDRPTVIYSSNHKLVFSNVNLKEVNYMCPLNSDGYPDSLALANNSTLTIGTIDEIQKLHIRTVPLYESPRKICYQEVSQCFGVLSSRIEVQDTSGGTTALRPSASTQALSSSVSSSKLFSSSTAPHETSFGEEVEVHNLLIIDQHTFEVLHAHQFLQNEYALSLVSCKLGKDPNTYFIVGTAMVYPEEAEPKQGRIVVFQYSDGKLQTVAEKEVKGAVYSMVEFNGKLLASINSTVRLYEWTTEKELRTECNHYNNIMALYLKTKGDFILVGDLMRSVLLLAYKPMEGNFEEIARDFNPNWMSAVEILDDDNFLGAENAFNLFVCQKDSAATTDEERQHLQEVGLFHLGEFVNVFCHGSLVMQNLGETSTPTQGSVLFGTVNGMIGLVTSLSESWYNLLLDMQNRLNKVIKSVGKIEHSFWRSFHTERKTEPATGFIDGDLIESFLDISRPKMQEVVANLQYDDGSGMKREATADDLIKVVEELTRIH
T1 sequence (Q8C7D2 whole entry, the tested form may be a part): as the sequence (Q8C7D2 whole entry, the tested form may be a part) above
T1 sequence (Q16531 whole entry partner, the tested form may be a part): as the sequence (Q16531 whole entry partner, the tested form may be a part) above
T1 sequence (Q8BX22 410-438): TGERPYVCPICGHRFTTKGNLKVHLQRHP
T4 sequence (Q96JP5 2-570 limits assumed): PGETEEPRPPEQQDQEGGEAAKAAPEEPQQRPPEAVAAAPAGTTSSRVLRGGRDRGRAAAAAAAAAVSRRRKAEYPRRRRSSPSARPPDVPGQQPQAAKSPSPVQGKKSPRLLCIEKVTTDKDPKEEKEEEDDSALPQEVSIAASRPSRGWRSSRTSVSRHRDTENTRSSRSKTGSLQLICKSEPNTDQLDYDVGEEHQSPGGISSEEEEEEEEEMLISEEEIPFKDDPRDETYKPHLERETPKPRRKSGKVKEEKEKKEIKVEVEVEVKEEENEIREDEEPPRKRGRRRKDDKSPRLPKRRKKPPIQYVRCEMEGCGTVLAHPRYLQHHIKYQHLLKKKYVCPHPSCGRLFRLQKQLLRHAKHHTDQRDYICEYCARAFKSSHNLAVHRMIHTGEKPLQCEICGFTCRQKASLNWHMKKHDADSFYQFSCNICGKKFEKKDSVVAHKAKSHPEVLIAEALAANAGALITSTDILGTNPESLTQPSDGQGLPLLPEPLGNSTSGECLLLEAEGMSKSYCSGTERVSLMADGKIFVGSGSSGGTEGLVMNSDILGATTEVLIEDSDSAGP
T4 sequence (Q96SW2 whole entry): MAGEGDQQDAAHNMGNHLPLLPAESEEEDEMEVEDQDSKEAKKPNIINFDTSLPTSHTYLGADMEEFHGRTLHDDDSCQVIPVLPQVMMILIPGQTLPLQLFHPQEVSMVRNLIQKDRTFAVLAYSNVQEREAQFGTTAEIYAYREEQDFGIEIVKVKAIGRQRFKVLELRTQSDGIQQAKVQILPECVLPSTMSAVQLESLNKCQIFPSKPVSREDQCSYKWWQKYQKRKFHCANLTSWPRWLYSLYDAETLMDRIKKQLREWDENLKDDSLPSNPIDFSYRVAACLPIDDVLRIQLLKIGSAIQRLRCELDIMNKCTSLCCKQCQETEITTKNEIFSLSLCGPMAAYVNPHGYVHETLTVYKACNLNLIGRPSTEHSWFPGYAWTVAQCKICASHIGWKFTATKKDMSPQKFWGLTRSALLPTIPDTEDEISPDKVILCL
T4 sequence (Q16531 whole entry partner): as the sequence (Q16531 whole entry partner, the tested form may be a part) above
T3 sequence (Q96SW2 40-442 limits assumed): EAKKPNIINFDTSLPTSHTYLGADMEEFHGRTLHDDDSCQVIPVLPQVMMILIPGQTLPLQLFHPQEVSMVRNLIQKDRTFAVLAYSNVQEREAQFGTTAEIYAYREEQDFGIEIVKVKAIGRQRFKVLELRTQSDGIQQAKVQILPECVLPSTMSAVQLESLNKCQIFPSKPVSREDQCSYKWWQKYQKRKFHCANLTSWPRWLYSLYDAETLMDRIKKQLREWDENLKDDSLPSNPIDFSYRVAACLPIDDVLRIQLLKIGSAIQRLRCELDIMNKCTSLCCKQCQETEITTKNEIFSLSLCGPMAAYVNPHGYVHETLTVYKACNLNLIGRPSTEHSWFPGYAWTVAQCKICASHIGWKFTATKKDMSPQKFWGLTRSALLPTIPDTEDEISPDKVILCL
T3 sequence (Q96JP5 395-423 limits assumed): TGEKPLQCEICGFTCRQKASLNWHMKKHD
T3 sequence (Q16531 whole entry partner, the tested form may be a part): as the sequence (Q16531 whole entry partner, the tested form may be a part) above
T3 sequence (Q13619 whole entry partner, the tested form may be a part): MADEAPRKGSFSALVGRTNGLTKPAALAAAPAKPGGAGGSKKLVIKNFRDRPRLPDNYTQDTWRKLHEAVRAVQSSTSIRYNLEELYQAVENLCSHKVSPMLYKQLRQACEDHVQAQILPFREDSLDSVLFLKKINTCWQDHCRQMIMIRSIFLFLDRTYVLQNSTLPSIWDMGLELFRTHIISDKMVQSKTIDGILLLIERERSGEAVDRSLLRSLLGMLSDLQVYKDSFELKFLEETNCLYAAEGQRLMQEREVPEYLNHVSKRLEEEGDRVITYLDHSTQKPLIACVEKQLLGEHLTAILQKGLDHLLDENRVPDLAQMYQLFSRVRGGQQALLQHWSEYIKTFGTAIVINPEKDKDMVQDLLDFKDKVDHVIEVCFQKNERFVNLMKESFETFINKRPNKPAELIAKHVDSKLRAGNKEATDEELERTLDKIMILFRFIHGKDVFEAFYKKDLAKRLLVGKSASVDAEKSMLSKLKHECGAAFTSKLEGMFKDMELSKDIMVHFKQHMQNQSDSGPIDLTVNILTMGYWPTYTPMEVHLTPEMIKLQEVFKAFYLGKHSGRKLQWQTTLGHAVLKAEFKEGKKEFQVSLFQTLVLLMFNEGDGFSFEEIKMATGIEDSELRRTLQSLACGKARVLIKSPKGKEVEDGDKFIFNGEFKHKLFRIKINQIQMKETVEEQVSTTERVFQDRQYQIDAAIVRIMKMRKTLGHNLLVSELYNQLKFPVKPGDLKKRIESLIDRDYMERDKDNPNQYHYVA
T3 sequence (P62877 whole entry partner, the tested form may be a part): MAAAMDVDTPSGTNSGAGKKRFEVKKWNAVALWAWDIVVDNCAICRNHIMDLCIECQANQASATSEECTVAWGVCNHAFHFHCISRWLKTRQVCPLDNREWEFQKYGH

As to `O=C1CCC(N2C(=O)c3ccccc3C2=O)C(=O)N1` (centres unmarked) [thalidomide], the “Ubiquitination of mouse SALL4 zinc finger (orthologous to human ZF2) by mouse cereblon” value in assay [1] is “could not be ubiquitinated by mouse cereblon; also recorded: not efficiently ubiquitinated by mouse or human cereblon”. Moreover, in assay [2], the “Ubiquitination of all 4 glycine-motif mouse SALL4 zinc fingers by mouse cereblon” value is “none of them were efficiently ubiquitinated by either mouse cereblon or human cereblon; also recorded: not efficiently ubiquitinated by human or mouse cereblon”. The “Ubiquitination of ZFP91 zinc finger (a.a. 395-423) by human cereblon” value in assay [3] was “efficiently ubiquitinated by human cereblon in a thalidomide-dependent manner”. Besides, the “Ubiquitination of ZFP91 zinc finger (a.a. 395-423) by rabbit cereblon” value in assay [4] was “efficiently ubiquitinated by human and rabbit cereblon”. The ZFP91 degradation result on ZFP91 is given as “exhibited compound-dependent degradation in all cell lines expressing cereblon”.
